Read-outs that look alike come from different tables or passages of the source.
What was measured:
Assay type in all cases: cell-based
RPMI-8226 = test: NCI60 one-dose screen; conditions: Homo sapiens
NCI-H522 [1] = test: NCI60 five-dose screen; conditions: Homo sapiens
KM12 = test: NCI60 five-dose screen; conditions: Homo sapiens
SK-OV-3 [2] = test: NCI60 five-dose screen; conditions: Homo sapiens
DU-145 = test: NCI60 one-dose screen; conditions: Homo sapiens
MDA-MB-435 = test: NCI60 five-dose screen; conditions: Homo sapiens
CAKI-1 = test: NCI60 five-dose screen; conditions: Homo sapiens
HT29 = test: NCI60 one-dose screen; conditions: Homo sapiens
786-0 = test: NCI60 one-dose screen; conditions: Homo sapiens
MOLT-4 = test: NCI60 five-dose screen; conditions: Homo sapiens
TK-10 = test: NCI60 one-dose screen; conditions: Homo sapiens
SK-MEL-2 = test: NCI60 one-dose screen; conditions: Homo sapiens
A549/ATCC = test: NCI60 five-dose screen; conditions: Homo sapiens
A498 = test: NCI60 five-dose screen; conditions: Homo sapiens
LOX IMVI = test: NCI60 one-dose screen; conditions: Homo sapiens, read-out: Growth percent
ACHN = test: NCI60 five-dose screen; conditions: Homo sapiens
RXF 393 = test: NCI60 five-dose screen; conditions: Homo sapiens
SK-MEL-28 = test: NCI60 five-dose screen; conditions: Homo sapiens
MDA-MB-231/ATCC = test: NCI60 one-dose screen; conditions: Homo sapiens
OVCAR-4 [3] = test: NCI60 one-dose screen; conditions: Homo sapiens
UACC-257 = test: NCI60 five-dose screen; conditions: Homo sapiens
OVCAR-5 [4] = test: NCI60 five-dose screen; conditions: Homo sapiens
OVCAR-4 [5] = test: NCI60 five-dose screen; conditions: Homo sapiens
COLO 205 = test: NCI60 one-dose screen; conditions: Homo sapiens
HCC-2998 = test: NCI60 five-dose screen; conditions: Homo sapiens
NCI-H460 = test: NCI60 five-dose screen; conditions: Homo sapiens
M14 = test: NCI60 five-dose screen; conditions: Homo sapiens
MALME-3M = test: NCI60 one-dose screen; conditions: Homo sapiens, read-out: Growth percent
NCI-H23 = test: NCI60 one-dose screen; conditions: Homo sapiens
Melanoma panel = test: NCI60 five-dose screen, panel mean; conditions: Homo sapiens, read-out: Mean GI50
HL-60(TB) = test: NCI60 five-dose screen; conditions: Homo sapiens
T-47D = test: NCI60 one-dose screen; conditions: Homo sapiens, T47D, read-out: Growth percent
HCT-15 = test: NCI60 one-dose screen; conditions: Homo sapiens
NCI-H522 [6] = test: NCI60 one-dose screen; conditions: Homo sapiens
[7] = test system: 60 human tumor cell lines (NCI60); test: NCI60 one-dose screen, overall mean; conditions: for activity at 10 µM: Homo sapiens, read-out: Mean growth percent
MDA-MB-468 = test: NCI60 one-dose screen; conditions: Homo sapiens
OVCAR-5 [8] = test: NCI60 one-dose screen; conditions: Homo sapiens, OVCAR-5, read-out: Growth percent
SW-620 = test: NCI60 one-dose screen; conditions: Homo sapiens
HOP-92 [9] = test: NCI60 five-dose screen; conditions: Homo sapiens
[10] = test system: Non-small Cell Lung Cancer panel; test: NCI60 five-dose screen, panel mean; conditions: Homo sapiens, read-out: Mean GI50
HOP-92 [11] = test: NCI60 one-dose screen; conditions: Homo sapiens
Renal Cancer panel = test: NCI60 five-dose screen, panel mean; conditions: Homo sapiens, read-out: Mean GI50
NCI-H226 = test: NCI60 one-dose screen; conditions: Homo sapiens
SK-OV-3 [12] = test: NCI60 one-dose screen; conditions: Homo sapiens
U251 = test: NCI60 five-dose screen; conditions: Homo sapiens

`CCC12C=CCN3CCC4(c5ccc(OC)cc5N(C)C4C(O)(C(=O)OC)C1OC(=O)CCC[P+](c1ccc(C)cc1)(c1ccc(C)cc1)c1ccc(C)cc1)C32` (stereo not drawn) [9a] showed an activity at 10 µM (RPMI-8226; RPMI-8226, read-out: Growth percent) of -56.3%, a GI50 (NCI-H522 [1]; NCI-H522) of 258 nM and a GI50 (KM12; KM12) of 376 nM. The GI50 (SK-OV-3 [2]; SK-OV-3) was 290 nM, the activity at 10 µM (DU-145; DU-145, read-out: Growth percent) was -78.5% and the GI50 (MDA-MB-435; MDA-MB-435) was 331 nM. It also gave a GI50 (CAKI-1; CAKI-1) of 1870 nM, an activity at 10 µM (HT29; HT-29, read-out: Growth percent) of -80.7% and an activity at 10 µM (786-0; 786-0, read-out: Growth percent) of -88%. It also gave a GI50 (MOLT-4; MOLT-4) of 294 nM, an activity at 10 µM (TK-10; TK-10, read-out: Growth percent) of -88.5% and an activity at 10 µM (SK-MEL-2; SK-MEL-2, read-out: Growth percent) of -85.4%. The GI50 (A549/ATCC; A549) was 334 nM, the GI50 (A498; A498) was 1630 nM and the activity at 10 µM (LOX IMVI) was -89.3%. The GI50 (ACHN) was 1610 nM, the GI50 (RXF 393; RXF 393) was 279 nM and the GI50 (SK-MEL-28; SK-MEL-28) was 361 nM. The activity at 10 µM (MDA-MB-231/ATCC; MDA-MB-231, read-out: Growth percent) was -94.8%, the activity at 10 µM (OVCAR-4 [3]; OVCAR-4, read-out: Growth percent) was -73.5% and the GI50 (UACC-257; UACC-257) was 272 nM. The GI50 (OVCAR-5 [4]; OVCAR-5) was 331 nM, the GI50 (OVCAR-4 [5]; OVCAR-4) was 370 nM and the activity at 10 µM (COLO 205; COLO 205, read-out: Growth percent) was -50.2%. For the same compound, the GI50 (HCC-2998; HCC 2998) was 415 nM, the GI50 (NCI-H460; NCI-H460) was 327 nM and the GI50 (M14; M14) was 456 nM. For the same compound, the activity at 10 µM (MALME-3M; Malme-3M) was -94.4%, the activity at 10 µM (NCI-H23; NCI-H23, read-out: Growth percent) was -90.7% and the GI50 (Melanoma panel) was 350 nM. It also gave a GI50 (HL-60(TB); HL-60) of 162 nM, an activity at 10 µM (T-47D) of -78.4% and an activity at 10 µM (HCT-15; HCT-15, read-out: Growth percent) of -91%. For the same compound, the activity at 10 µM (NCI-H522 [6]; NCI-H522, read-out: Growth percent) was -86.3%, the activity at 10 µM ([7]; 60 cell) was -78.6% and the “average reduction / average cell death” value ([7]; one-dose, 10 µM, average over cell lines) was “more than 70%”. For the same compound, the activity at 10 µM (MDA-MB-468; MDA-MB-468, read-out: Growth percent) was -92.1%, the activity at 10 µM (OVCAR-5 [8]) was -95.9% and the activity at 10 µM (SW-620; SW-620, read-out: Growth percent) was -85.2%. For the same compound, the GI50 (HOP-92 [9]; HOP-92) was 187 nM, the GI50 [10] was 410 nM and the activity at 10 µM (HOP-92 [11]; HOP-92, read-out: Growth percent) was -83.2%. The GI50 (Renal Cancer panel) was 1050 nM, the activity at 10 µM (NCI-H226; NCI-H226, read-out: Growth percent) was -77.4% and the activity at 10 µM (SK-OV-3 [12]; SK-OV-3, read-out: Growth percent) was -81%. For the same compound, the GI50 (U251; U-251) was 291 nM.
Work on `CC[C@]12C=CCN3CC[C@@]4(c5ccc(OC)cc5N(C)[C@H]4[C@@](O)(C(=O)OC)[C@@H]1OC(=O)CCC[P+](c1ccccc1)(c1ccccc1)c1ccccc1)[C@@H]32` [compound 3, reference compound] yielded an activity at 10 µM (RPMI-8226; RPMI-8226, 10 μM, one-dose, read-out: Growth percent) of -12.7%, a GI50 (NCI-H522 [1]; NCI-H522, Non-small Cell Lung Cancer, five-dose, read-out: GI50) of 216 nM and a GI50 (KM12; KM12, KM12, Colon Cancer, five-dose, read-out: GI50) of 297 nM. It also gave a GI50 (SK-OV-3 [2]; SK-OV-3, Ovarian Cancer, five-dose, read-out: GI50) of 894 nM, an activity at 10 µM (DU-145; DU-145, 10 μM, one-dose, read-out: Growth percent) of 18% and a GI50 (MDA-MB-435; MDA-MB-435, Melanoma, five-dose, read-out: GI50) of 278 nM. It also gave a GI50 (CAKI-1; CAKI-1, Renal Cancer, five-dose, read-out: GI50) of 5570 nM, an activity at 10 µM (HT29; HT-29, HT29, 10 μM, one-dose, read-out: Growth percent) of 2.42% and an activity at 10 µM (786-0; 786-0, 10 μM, one-dose, read-out: Growth percent) of 20.6%. For the same compound, the GI50 (MOLT-4; MOLT-4, Leukemia, five-dose, read-out: GI50) was 614 nM, the activity at 10 µM (TK-10; TK-10, 10 μM, one-dose, read-out: Growth percent) was 22.3% and the activity at 10 µM (SK-MEL-2; SK-MEL-2, 10 μM, one-dose, read-out: Growth percent) was -65.3%. The GI50 (A549/ATCC; A549/ATCC, Non-small Cell Lung Cancer, five-dose, read-out: GI50) was 1350 nM, the GI50 (A498; A498, Renal Cancer, five-dose, read-out: GI50) was 1710 nM and the activity at 10 µM (LOX IMVI; 10 μM, one-dose) was 8.81%. The GI50 (ACHN; Renal Cancer, five-dose, read-out: GI50) was 4530 nM, the GI50 (RXF 393; RXF 393, Renal Cancer, five-dose, read-out: GI50) was 705 nM and the GI50 (SK-MEL-28; SK-MEL-28, Melanoma, five-dose, read-out: GI50) was 261 nM. It also gave an activity at 10 µM (MDA-MB-231/ATCC; MDA-MB-231/ATCC, 10 μM, one-dose, read-out: Growth percent) of 1.29%, an activity at 10 µM (OVCAR-4 [3]; OVCAR-4, 10 μM, one-dose, read-out: Growth percent) of -3.58% and a GI50 (UACC-257; UACC-257, UACC-257, Melanoma, five-dose, read-out: GI50) of 240 nM. For the same compound, the GI50 (OVCAR-5 [4]; OVCAR-5, Ovarian Cancer, five-dose, read-out: GI50) was 1200 nM, the GI50 (OVCAR-4 [5]; OVCAR-4, Ovarian Cancer, five-dose, read-out: GI50) was 469 nM and the activity at 10 µM (COLO 205; COLO 205, 10 μM, one-dose, read-out: Growth percent) was -87.9%. It also gave a GI50 (HCC-2998; HCC-2998, Colon Cancer, five-dose, read-out: GI50) of 436 nM, a GI50 (NCI-H460; NCI-H460, Non-small Cell Lung Cancer, five-dose, read-out: GI50) of 1220 nM and a GI50 (M14; M14, Melanoma, five-dose, read-out: GI50) of 790 nM. The activity at 10 µM (MALME-3M; MALME-3M, 10 μM, one-dose) was -12.4%, the activity at 10 µM (NCI-H23; NCI-H23, 10 μM, one-dose, read-out: Growth percent) was -8.66% and the GI50 (Melanoma panel; mean over Melanoma panel) was 450 nM. The GI50 (HL-60(TB); HL-60, HL-60(TB), Leukemia, five-dose, read-out: GI50) was 124 nM, the activity at 10 µM (T-47D; T-47D, 10 μM, one-dose) was 1.08% and the activity at 10 µM (HCT-15; HCT-15, 10 μM, one-dose, read-out: Growth percent) was 101%. It also gave an activity at 10 µM (NCI-H522 [6]; NCI-H522, 10 μM, one-dose, read-out: Growth percent) of -35.4%, an activity at 10 µM ([7]; mean over 60 cell lines, 10 μM, one-dose) of 3.13% and an activity at 10 µM (MDA-MB-468; MDA-MB-468, 10 μM, one-dose, read-out: Growth percent) of -75.6%. For the same compound, the activity at 10 µM (SW-620; SW-620, 10 μM, one-dose, read-out: Growth percent) was 17.4%, the GI50 (HOP-92 [9]; HOP-92, Non-small Cell Lung Cancer, five-dose, read-out: GI50) was 66 nM and the GI50 ([10]; mean over Non-small Cell Lung Cancer panel) was 1110 nM. The activity at 10 µM (HOP-92 [11]; HOP-92, 10 μM, one-dose, read-out: Growth percent) was -40%, the GI50 (Renal Cancer panel; mean over Renal Cancer panel) was 3520 nM and the activity at 10 µM (NCI-H226; NCI-H226, 10 μM, one-dose, read-out: Growth percent) was 14%. The activity at 10 µM (SK-OV-3 [12]; SK-OV-3, 10 μM, one-dose, read-out: Growth percent) was -21% and the GI50 (U251; U-251, U251, CNS Cancer, five-dose, read-out: GI50) was 371 nM.
